In ChEMBL document CHEMBL1201862, “PubChem BioAssay data set” (2004):
Active and inactive are the calls of the source.

How the values were obtained:
[1] = inhibitors of firefly luciferase expression or activity, dose response, H4 neuroglioma cells, luminescence (AID 1990); assay type: functional, cell-based
[2] = Luminescence Cell-Based Dose Response HTS to Identify Inhibitors of 5'UTR Stem-Loop Driven Prion Protein mRNA Translation in H4 Neuroglioblastoma Cells. [Related pubchem assays: 1827 (Project Summary), 1813 (Primary HTS)]; assay type: functional
[3] = inhibitors of SNCA 5'UTR-driven reporter translation, confirmation, H4 neuroglioma cells, luminescence (AID 1988); assay type: functional, cell-based
[4] = target: T1, DNA repair protein RAD52 homolog (Homo sapiens, UniProt P43351); assay type: functional, biochemical
T1 sequence (P43351 whole entry): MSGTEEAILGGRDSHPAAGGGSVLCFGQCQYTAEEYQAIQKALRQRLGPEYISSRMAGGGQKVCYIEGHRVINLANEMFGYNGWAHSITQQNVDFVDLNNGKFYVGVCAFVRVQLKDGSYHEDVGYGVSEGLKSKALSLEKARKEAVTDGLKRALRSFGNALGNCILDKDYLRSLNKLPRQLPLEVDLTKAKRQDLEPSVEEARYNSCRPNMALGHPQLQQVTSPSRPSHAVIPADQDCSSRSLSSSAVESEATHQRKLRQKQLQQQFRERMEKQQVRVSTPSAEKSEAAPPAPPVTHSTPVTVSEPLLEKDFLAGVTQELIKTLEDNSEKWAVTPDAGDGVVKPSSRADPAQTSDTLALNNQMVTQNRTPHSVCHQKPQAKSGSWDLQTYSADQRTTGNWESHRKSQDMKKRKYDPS

[5] = target: Cytochrome P450 2C9 (Homo sapiens, UniProt P11712)
Cytochrome P450 2C9, sequence (P11712 whole entry, the tested form may be a part): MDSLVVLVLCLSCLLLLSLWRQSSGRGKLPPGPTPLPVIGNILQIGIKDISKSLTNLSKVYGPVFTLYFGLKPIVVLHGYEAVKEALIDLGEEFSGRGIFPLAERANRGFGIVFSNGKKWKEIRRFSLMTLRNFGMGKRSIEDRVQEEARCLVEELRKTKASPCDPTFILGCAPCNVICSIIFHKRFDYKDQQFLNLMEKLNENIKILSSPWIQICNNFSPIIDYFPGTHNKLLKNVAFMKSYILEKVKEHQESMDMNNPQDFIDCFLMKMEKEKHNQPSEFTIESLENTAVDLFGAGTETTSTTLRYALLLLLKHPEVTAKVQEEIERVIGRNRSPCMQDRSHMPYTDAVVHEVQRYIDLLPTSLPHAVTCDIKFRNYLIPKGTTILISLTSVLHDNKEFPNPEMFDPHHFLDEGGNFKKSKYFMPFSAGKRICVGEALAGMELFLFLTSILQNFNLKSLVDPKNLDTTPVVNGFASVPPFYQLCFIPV

[6] = inhibitors of HIV Env-driven cell fusion, dose response, cherry-pick (AID 652057); assay type: functional, cell-based
[7] = ZM109 Env clade C HIV-1 fusion inhibitors, dose response, HeLa effector, CEM target cells, luciferase, cherry-pick (AID 652058); assay type: functional, cell-based
[8] = inhibitors of clade B AD8 Env fusion, dose response, cell-based, cherry-pick (AID 652062); assay type: functional;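 note: luciferase signal from cell-cell fusion driven by HIV-1 clade B AD8 Env; potency is for inhibitors of fusion seen as a drop in luminescence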
[9] = off-target signal loss in HeLa-CEM21 co-culture – HeLa F-luc CTL cells, cherry-picked, counter-screen for HIV-1 Env fusion inhibitor project, dose response (AID 652040); assay type: functional, cell-based;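 note: potency for signal decrease marking cytotoxic or nonspecific inhibition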
[10] = Luminescence Cell-Based Dose Confirmation HTS to Identify Activators of 5'UTR Stem-Loop Driven Alpha-Synuclein mRNA Translation in H4 Neuroglioblastoma Cells. [Related pubchem assays: 1829 (Project Summary), 1814 (Primary HTS)]; assay type: functional
[11] = Luminescence Cell-Based Dose Response HTS to Identify Activators of Luciferase Translation or Activity in H4 […] Cells. [Related pubchem assays: 1829 (Project Summary), 1814 (Primary HTS)]; assay type: functional
[12] = tested on: H4; test: Luminescence Cell-Based Dose Response HTS to Identify Activators of 5'UTR Stem-Loop Driven Prion Protein mRNA Translation in H4 Neuroglioblastoma Cells. [Related pubchem assays: 1829 (Project Summary), 1814 (Primary HTS)]; assay type: functional; conditions: Homo sapiens
[13] = target: Cytochrome P450 2D6 (Homo sapiens, UniProt P10635);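 note: CYP2D6 member of a cytochrome P450 panel assay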
Cytochrome P450 2D6, sequence (P10635 whole entry): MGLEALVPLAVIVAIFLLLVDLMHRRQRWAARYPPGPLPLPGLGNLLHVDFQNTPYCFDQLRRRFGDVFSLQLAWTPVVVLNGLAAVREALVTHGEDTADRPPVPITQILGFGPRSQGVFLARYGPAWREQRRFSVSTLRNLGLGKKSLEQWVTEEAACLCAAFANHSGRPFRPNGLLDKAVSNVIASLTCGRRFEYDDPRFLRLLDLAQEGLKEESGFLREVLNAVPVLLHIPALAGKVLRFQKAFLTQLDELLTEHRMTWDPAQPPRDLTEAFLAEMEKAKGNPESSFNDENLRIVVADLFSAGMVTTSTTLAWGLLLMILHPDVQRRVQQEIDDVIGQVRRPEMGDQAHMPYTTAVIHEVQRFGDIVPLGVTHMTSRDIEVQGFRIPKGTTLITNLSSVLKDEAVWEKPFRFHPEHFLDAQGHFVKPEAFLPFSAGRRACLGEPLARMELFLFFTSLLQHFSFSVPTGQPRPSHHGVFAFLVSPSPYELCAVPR

[14] = target: Cytochrome P450 3A4 (Homo sapiens, UniProt P08684);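 note: CYP3A4 tested as one member of a cytochrome P450 panel screen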
Cytochrome P450 3A4, sequence (P08684 whole entry): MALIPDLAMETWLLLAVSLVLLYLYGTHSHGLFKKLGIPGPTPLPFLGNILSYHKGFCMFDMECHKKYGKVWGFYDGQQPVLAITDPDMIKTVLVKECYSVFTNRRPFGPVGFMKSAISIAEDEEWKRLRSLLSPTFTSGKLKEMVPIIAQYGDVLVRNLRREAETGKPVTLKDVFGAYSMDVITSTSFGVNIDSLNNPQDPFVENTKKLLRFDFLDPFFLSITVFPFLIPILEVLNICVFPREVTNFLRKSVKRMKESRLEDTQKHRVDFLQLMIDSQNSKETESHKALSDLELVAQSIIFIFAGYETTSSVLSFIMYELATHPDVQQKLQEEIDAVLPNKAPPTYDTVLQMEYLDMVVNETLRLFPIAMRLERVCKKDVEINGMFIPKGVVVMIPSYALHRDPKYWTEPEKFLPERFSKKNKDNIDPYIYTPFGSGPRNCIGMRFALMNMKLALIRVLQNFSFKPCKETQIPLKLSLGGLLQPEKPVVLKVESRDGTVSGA

[15] = target: T2, Ubiquitin-conjugating enzyme E2 N (Homo sapiens, UniProt P61088); assay type: functional;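 note: Dose-response confirmation in a TR-FRET assay detecting UBC13-driven polyubiquitin chain formation, inhibition measured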
T2 sequence (P61088 whole entry): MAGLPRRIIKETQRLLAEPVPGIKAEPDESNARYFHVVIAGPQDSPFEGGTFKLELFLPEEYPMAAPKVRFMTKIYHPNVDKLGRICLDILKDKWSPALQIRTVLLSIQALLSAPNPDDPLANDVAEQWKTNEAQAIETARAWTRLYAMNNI

[16] = microbe, parasite or virus in culture; assay type: functional; conditions: Mycobacterium tuberculosis
[17] = Luminescence Cell-Based Dose Retest to Confirm Inhibitors of Cancer Stem Cells. [Related pubchem assays (depositor defined):AID2717, AID2721]; assay type: functional; conditions: Homo sapiens
[18] = P. falciparum 3D7-ScDHODH growth inhibitors, dose response, SYBR Green, dry powder samples (AID 1159570); assay type: functional, cell-based;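 note: parasite growth measured after 72 hours of compound exposure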
[19] = HepG2 cell cytotoxicity, dose response, cytotoxicity control, plate reader, dry powder samples (AID 1159569); assay type: functional, cell-based;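 note: inhibitor potency with signal falling toward the positive control level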
[20] = P. falciparum Dd2 growth inhibitors, dose response, SYBR Green, cherry-picked samples (AID 1159567); assay type: functional, cell-based
[21] = P. falciparum Dd2 growth inhibitors, dose response, SYBR Green, dry powder samples (AID 1159566); assay type: functional, cell-based;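 note: potency for growth inhibition with lower SYBR green DNA signal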
[22] = P. falciparum ATP4 D1247Y mutant growth inhibitors, dose response, NITD609-resistant line, SYBR Green, dry powder (AID 1159571); assay type: functional, cell-based;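 note: parasites synchronized at ring stage by sorbitol before testing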
[23] = target: T3, Short transient receptor potential channel 4 (Mus musculus, UniProt Q9QUQ5); test: mouse TRPC4 channel inhibitors, dose response, cell-based, HEK293 TRPC4/mu-opioid, Fluo-4 calcium (AID 434942); assay type: functional;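 note: potency of inhibitors blocking the TRPC4 calcium response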
T3 sequence (Q9QUQ5 whole entry): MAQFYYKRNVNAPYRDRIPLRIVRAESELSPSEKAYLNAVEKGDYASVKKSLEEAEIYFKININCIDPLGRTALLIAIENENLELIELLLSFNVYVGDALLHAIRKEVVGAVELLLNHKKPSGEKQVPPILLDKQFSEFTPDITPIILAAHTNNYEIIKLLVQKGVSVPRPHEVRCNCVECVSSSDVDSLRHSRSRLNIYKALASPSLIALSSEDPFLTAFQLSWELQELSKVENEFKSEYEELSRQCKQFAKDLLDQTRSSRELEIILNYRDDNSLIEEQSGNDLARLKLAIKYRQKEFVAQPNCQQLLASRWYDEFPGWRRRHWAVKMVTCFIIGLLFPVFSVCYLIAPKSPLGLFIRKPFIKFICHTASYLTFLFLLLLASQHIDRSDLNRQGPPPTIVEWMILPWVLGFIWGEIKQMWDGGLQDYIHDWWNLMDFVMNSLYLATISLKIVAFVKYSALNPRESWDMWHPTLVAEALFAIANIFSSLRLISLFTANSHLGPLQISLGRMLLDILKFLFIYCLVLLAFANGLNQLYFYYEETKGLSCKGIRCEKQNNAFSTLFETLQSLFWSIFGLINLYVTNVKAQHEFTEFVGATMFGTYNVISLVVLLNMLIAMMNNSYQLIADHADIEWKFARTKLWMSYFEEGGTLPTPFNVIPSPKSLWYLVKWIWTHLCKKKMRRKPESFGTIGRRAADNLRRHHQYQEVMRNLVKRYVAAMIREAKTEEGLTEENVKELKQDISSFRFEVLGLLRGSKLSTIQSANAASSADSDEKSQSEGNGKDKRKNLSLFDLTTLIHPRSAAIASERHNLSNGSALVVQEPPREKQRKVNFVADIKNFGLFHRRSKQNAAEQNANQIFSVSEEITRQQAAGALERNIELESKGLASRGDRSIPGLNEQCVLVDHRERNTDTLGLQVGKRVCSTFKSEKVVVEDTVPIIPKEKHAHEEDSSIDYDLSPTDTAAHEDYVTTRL

With `CN(C)CC/C=C1\c2ccc(F)cc2Sc2cc(F)c(Cl)cc21` the EC50 [1] was > 120 µM (not active), the EC50 [2] was 45.6 µM (active) and the EC50 [3] was 12.9 µM (active). For the same compound, the AC50 [4] was 9.75 µM (active).

For `CN1[C@@H]2CC[C@H]1CC(O)C2` (some centres not stated), the AC50 [5] was “inconclusive”.

With `C[C@H](CO)N1C[C@H](C)[C@H](CN(C)S(=O)(=O)c2ccc(F)cc2)Oc2ncc(/C=C/c3ccccc3)cc2C1=O` the AC50 [6] was 16.5 µM (active), the AC50 [7] was 13.9 µM (active) and the AC50 [8] was 28.3 µM (active).

With `COc1ccc2c(c1)[C@H]1[C@H](CO2)[C@H](c2ccccc2)[C@]2(C)C(=O)Nc3cc(OC)c(OC)cc3C(=O)N12` the AC50 [6] was 16.1 µM (active), the AC50 [7] was 18.9 µM (active) and the AC50 [9] was 25.6 µM (active). The AC50 [8] was 27.3 µM (active).

With `CCOc1ccc2nc(SCc3ccccc3C#N)sc2c1` the EC50 [10] was 1.1 µM (active), the EC50 [11] was 0.884 µM (active) and the EC50 [12] was 0.7 µM (active). The AC50 [13] was 17.8 µM (inconclusive), the AC50 [14] was 12.6 µM (inconclusive) and the AC50 [5] was “inconclusive”.

For `CCOc1ccccc1N(C(=O)CNC(=O)c1ccco1)C(C(=O)NC1CCCC1)c1cccnc1` (configuration not stated), the AC50 [6] was 7.37 µM (active), the AC50 [7] was 6.15 µM (active) and the AC50 [9] was 9.65 µM (active). The AC50 [8] was 3.91 µM (active).

With `Cc1cc(C)c2nc(NCCCNC(=S)NCCCN(C)C)c(C#N)cc2c1` the IC50 [15] was > 20 µM (inactive) and the AC50 [4] was 7.63 µM (active).

In the case of `c1ccc(CN2CCN(c3nc(NCc4ccco4)c4ccccc4n3)CC2)cc1`, the CC50 [16] is reported as 24.4 µM (active) and the AC50 [17] is reported as 3.34 µM (active).

With `COc1ccc2c3c(n(C)c2c1)[C@@H](CO)N(C(=O)Nc1ccc(F)cc1)CC31CCN(Cc2cccnc2)CC1` the AC50 [18] was 1.37 µM (active), the AC50 [19] was 31.7 µM (active) and the AC50 [20] was 0.819 µM (active). For the same compound, the AC50 [21] was 0.727 µM (active) and the AC50 [22] was 1.12 µM (active).

In the case of `Cc1cccc(C)c1N1CCc2c[nH]nc21`, the EC50 [23] is reported as 7.5 µM (active).
